In test [1] the test system is S24 GBMSC astrocytoma cells. Description: In vivo calcium imaging with MPLSM: intercellular calcium waves (frequency, synchronicity of calcium peaks) in tumor cells. Also noted: species or system mouse.
Experimental: The following small molecule calcium indicators were used: for GFP-transfected tumor cells: 2 mM Rhod-2AM (life technologies, R-1244); for RFP-transfected: 2 mM Fluo-4AM (life technologies, F-14201). The dissolved dyes were applied to the brain surface for 45 min. Regions with a similar tumor cell density were used. […] Pharmacological gap junction inhibition was achieved by superfusion with the gap junction inhibitor CBX (100 μM; control substance: extracellular saline; n=3 mice per group).
Two genetically-encoded calcium indicators were lentivirally transduced to GBMSCs: (A) The Lck-GCaMP3 sensor in the rrl-CAG-IGC3 vector (CAG promoter to control expression of DsRed and the Ca^2+ sensor that monitors near-membrane changes in [Ca^2+]i). (B) The radiometric calcium sensor Twitch-3 was used to determine intracellular calcium concentrations by Förster Resonance Energy Transfer (FRET) as known in the art.
Tumor cells or non-malignant brain astrocytes were marked manually by the use of the ROI Manager of ImageJ. Mean gray values were measured over time. […] Local maxima of calcium signals were detected by the findpeaks function (signal package, Octave-Forge). Thus, the number of calcium peaks of each cell (N) could be determined and the frequency (f) was calculated. The frequency was standardized for the cell number of each region to ensure comparability. Synchronous cells, the number of synchronous communications, and the time point of the synchronous firing were determined. Due to the fact that the images were recorded via a line mode, which leads to a latency of signal detection, the analysis was done in a window of 2 frames around each peak. This allowed to assess the synchronicity S (S∈R^+∪{0}), which was defined as the fraction of the whole number of synchronous cells (N_Syn) divided by the number of calcium peaks for the given cell (N_Ca). In case the cells were not active, a synchronicity of zero was allotted.
For example, in a system with a synchronicity of 1, a firing cell interacts with a second one. […]
The subject of a further test is normal brain astrocytes. Description: In vivo calcium imaging with MPLSM: calcium waves in co-registered normal brain astrocytes. Also noted: species or system mouse. The note with it: superfusion with suramin 100 μM (ATP receptor blockade); FIG. 8D. Here is the method: The following small molecule calcium indicators were used: for GFP-transfected tumor cells: 2 mM Rhod-2AM (life technologies, R-1244); for RFP-transfected: 2 mM Fluo-4AM (life technologies, F-14201). The dissolved dyes were applied to the brain surface for 45 min. Regions with a similar tumor cell density were used. For the combination of radiotherapy and calcium imaging, mice were pretreated with Fluo-4AM and imaged after awaking with low isoflurane (0.5%). One hour after radiotherapy, the same regions were imaged again to detect changes in calcium activity. Pharmacological gap junction inhibition was achieved by superfusion with the gap junction inhibitor CBX (100 μM; control substance: extracellular saline; n=3 mice per group). […]
Tumor cells or non-malignant brain astrocytes were marked manually by the use of the ROI Manager of ImageJ. Mean gray values were measured over time. […] Local maxima of calcium signals were detected by the findpeaks function (signal package, Octave-Forge). Thus, the number of calcium peaks of each cell (N) could be determined and the frequency (f) was calculated. […] Synchronous cells, the number of synchronous communications, and the time point of the synchronous firing were determined. Due to the fact that the images were recorded via a line mode, which leads to a latency of signal detection, the analysis was done in a window of 2 frames around each peak. […]

Another test has as its system S24 GBMSCs. Description: Intratumoral microinjection of sulforhodamine 101 (SR101): dye distribution in TM-connected tumor cell network. It counts as in vivo, mouse. The note with it: SR101 100 μM co-injected with 100 μM CBX, 120 min after injection; FIG. 7G. The method, then:
For intratumoral microinjection of sulforhodamine 101 (SR101, Molecular Probes, S-359), 50 nl of 100 μM SR101 (with or without 100 μM CBX, Sigma-Aldrich, C4790) were injected with a very thin glass pipette into tumor regions of similar cellular densities, >90 days after tumor injection.
For in vivo imaging data, TM numbers, branches/TM and connections/cell were counted manually, and TM lengths were measured manually in the slice mode in Imaris. For quantification and analysis of tumor cells/TMs before and after radiotherapy, cells were counted in the same regions before radiation or sham radiation, and at different time points afterwards. Cells without a TM-connection were defined as “non-connected” and cells with at least one TM-connection(s) as “connected”. To analyze the number of TMs before and after irradiation, the TMs of individual, identical cells were counted at both time points. Ratios were calculated to determine the relative changes of cell and TM numbers over time. For the measurement of tumor volumes in BT088 tumors before and after radiotherapy, two regions were analyzed per animal using the surface function of Imaris. The mean speed of tumor cell invasion in S24 shControl vs. shGAP-43 tumors was determined by analysis of three consecutive imaging time points within a 24 hour time interval in vivo. […] They were connected to tracks and the mean track speed was calculated. […]

The source of these data is patent US12029789B2, “Agent for use in the treatment of glioma” (DC EUROPA LIMITED, priority 2015, dated 2024).

Regarding `NCCOB(c1ccccc1)c1ccccc1` [2-APB, 2-aminoethoxydiphenyl borate], in test [1] (superfusion with 2-APB 100 μM (inhibitor of IP3 receptors), FIG. 8D), the “ICWs between astrocytoma cells” value was “reduced ICWs”. Consider `Cc1ccc(C(=O)Nc2ccc(S(=O)(=O)O)c3cc(S(=O)(=O)O)cc(S(=O)(=O)O)c23)cc1NC(=O)c1cccc(NC(=O)Nc2cccc(C(=O)Nc3cc(C(=O)Nc4ccc(S(=O)(=O)O)c5cc(S(=O)(=O)O)cc(S(=O)(=O)O)c45)ccc3C)c2)c1` [suramin], for which the “ICWs in malignant astrocytic cells” value in test [1] (superfusion with suramin 100 μM (ATP receptor blockade), FIG. 8D) is given as “reduced ICWs”. Besides, in the test with normal brain astrocytes, the “ICWs in normal astrocytic cells” value was “reduced ICWs”. Regarding `CC1(C)[C@@H](OC(=O)CCC(=O)O)CC[C@]2(C)[C@H]3C(=O)C=C4[C@@H]5C[C@@](C)(C(=O)O)CC[C@]5(C)CC[C@@]4(C)[C@]3(C)CC[C@@H]12` [CBX, carbenoxolone], the “frequency and synchronicity of ICWs in GBMSC astrocytoma cells” value in test [1] (brain superfusion with 100 μM carbenoxolone (CBX) vs. extracellular saline, S24, FIG. 7E) is given as “reduced”. Besides, in the test on S24 GBMSCs, the “distribution of sulforhodamine 101 in the TM-connected tumor cell network” value is reported as “inhibited”.
